Test results published in US5480885A, “Ergoline derivatives of 1-propinylamine, a process for the manufacture thereof and the use thereof for medicaments” (priority 1991, dated 1996).

Tests used:
M1 muscarinic receptor [1] = assay: functional test, M1 muscarinic receptor; conditions: in words
[2] = blood pressure and heart rate in pentobarbital-anesthetized normotensive rats; assay type: in vivo, rat; conditions: rat, in vivo, iv; normotensive rats, pentobarbital-induced anesthesia; read-out: ED50, decrease of the mean arterial blood pressure
[3] = system: pentobarbital-anesthetized normotensive rats; assay: as above; assay type: in vivo, rat; conditions: 450 μg/kg i.v.
[4] = system: isolated rabbit thoracic aorta (noradrenaline); assay: inhibition of the constrictive activity of noradrenaline on the isolated rabbit thoracic aorta
sigma receptor [5] = assay: functional test, sigma receptor; conditions: in words
pithed rats = assay: vasoconstriction / diastolic pressure in pithed rats (Gillespie); assay type: in vivo, rat; conditions: 450 μg/kg i.v.; vs control
acetylcholine receptors = assay: oxotremorine-induced tremor in mice; assay type: in vivo; conditions: 20 to 70 mg/kg i.p.; oxotremorine 1.5 mg/kg s.c.; in words
[6] = biological target: T1, 5-HT1A serotoninergic receptor (Homo sapiens, UniProt P08908); assay: functional test, 5-HT1A serotoninergic receptor; conditions: in words
T1 sequence (P08908 1-422): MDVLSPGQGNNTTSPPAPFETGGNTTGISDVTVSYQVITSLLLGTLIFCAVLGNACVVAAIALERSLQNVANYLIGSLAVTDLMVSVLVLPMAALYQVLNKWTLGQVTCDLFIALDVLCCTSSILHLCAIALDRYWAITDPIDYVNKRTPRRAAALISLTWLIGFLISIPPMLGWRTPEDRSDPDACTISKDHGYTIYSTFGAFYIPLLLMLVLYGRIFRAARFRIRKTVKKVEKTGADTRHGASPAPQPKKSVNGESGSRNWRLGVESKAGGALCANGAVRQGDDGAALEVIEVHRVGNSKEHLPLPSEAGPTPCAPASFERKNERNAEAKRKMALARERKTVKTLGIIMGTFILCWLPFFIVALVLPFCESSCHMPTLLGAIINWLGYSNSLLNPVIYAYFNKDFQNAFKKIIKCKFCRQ

[7] = biological target: T2, isolated rabbit thoracic aorta (serotonin) (Oryctolagus cuniculus, UniProt G1SYA7)
T2 construct: isolated rabbit thoracic aorta; from tissue; host or cells: isolated rabbit thoracic aorta
T2 sequence (G1SYA7 entry or part of it): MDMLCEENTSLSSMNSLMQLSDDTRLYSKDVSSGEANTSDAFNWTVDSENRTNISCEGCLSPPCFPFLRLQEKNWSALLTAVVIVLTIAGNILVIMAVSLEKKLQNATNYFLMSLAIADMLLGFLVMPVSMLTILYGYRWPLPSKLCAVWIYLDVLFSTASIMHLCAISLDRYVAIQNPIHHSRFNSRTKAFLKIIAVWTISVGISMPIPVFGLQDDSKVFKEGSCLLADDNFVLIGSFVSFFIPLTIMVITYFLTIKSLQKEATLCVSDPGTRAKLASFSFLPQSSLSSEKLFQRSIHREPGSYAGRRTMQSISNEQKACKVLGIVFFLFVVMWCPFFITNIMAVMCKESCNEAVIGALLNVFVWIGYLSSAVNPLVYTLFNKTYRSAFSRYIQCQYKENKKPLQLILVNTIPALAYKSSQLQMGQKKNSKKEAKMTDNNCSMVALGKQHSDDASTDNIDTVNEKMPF

[8] = system: isolated rabbit vena cava inferior; assay: venous constriction on the isolated rabbit vena cava inferior; conditions: 1×10^-7 M; in words
D2 receptor = D2 receptor (Homo sapiens, UniProt P14416); assay: binding, [^3 H]Raclopride
Sequence of D2 receptor (P14416 whole entry): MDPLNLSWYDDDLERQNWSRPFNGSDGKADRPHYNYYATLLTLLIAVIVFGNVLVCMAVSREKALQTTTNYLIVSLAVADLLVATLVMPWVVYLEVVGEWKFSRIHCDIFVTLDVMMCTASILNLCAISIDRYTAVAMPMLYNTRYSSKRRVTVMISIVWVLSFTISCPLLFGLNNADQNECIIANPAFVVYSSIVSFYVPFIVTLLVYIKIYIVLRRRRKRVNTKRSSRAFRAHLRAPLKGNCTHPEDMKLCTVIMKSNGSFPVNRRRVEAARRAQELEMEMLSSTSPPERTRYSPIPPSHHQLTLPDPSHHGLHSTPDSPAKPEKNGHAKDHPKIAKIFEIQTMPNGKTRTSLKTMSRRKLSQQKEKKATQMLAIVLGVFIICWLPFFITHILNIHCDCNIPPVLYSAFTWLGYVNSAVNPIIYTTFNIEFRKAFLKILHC
Source text: (§1) Binding affinities of the compounds of Examples 1

D1 receptor = D1 receptor (Homo sapiens, UniProt P21728); assay: binding, [^3 H]SCH23390
Sequence of D1 receptor (P21728 whole entry): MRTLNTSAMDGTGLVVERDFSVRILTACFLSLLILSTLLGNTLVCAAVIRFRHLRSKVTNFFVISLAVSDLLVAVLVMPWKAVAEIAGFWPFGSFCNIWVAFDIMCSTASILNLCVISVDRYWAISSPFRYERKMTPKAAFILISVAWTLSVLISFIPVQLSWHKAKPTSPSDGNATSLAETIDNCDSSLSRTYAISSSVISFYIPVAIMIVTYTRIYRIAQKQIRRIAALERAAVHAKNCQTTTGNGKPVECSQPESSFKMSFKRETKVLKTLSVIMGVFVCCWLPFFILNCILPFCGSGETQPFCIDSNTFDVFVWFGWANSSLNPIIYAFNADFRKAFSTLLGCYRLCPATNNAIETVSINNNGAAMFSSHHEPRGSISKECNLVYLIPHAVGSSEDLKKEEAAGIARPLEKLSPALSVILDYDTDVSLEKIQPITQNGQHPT
Source text: (§2) Binding affinities of the compounds of Examples 5

D2 receptors [9] = biological target: T3, D2 receptors (Rattus norvegicus, UniProt P61169); assay: apomorphine-induced locomotion; assay type: in vivo; conditions: sc, -45 min., apomorphine 0.4 mg/kg s.c., rats, read-out: ID50, apomorphine-induced locomotion
T3 construct: from tissue; host or cells: living rats (central nervous system)
T3 sequence (P61169 whole entry): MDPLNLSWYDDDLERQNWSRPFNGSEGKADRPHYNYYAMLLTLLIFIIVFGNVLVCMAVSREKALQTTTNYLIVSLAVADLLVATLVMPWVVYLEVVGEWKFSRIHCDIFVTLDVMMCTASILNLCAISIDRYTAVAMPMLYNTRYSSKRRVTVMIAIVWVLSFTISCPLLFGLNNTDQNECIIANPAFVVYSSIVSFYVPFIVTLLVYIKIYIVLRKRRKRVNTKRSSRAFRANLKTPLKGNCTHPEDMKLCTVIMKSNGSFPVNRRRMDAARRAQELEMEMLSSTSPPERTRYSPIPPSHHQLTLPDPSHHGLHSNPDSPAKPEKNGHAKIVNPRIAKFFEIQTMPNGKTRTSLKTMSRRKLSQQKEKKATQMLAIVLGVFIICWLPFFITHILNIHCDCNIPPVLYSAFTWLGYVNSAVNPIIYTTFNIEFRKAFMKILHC

[10] = overall antipsychotic action and side-effect profile (summary statements); assay type: in vivo; conditions: in words
isolated rat uterus = assay: uterotonic activity (isolated rat uterus); conditions: in words
[11] = biological target: T1, 5-HT1A serotoninergic receptor; assay: binding at [^3 H] 8-OH-DPAT binding site; conditions: [^3 H] 8-OH-DPAT; in words
Source text: as §1

[12] = system: isolated rat uterus (serotonin); assay: inhibition of serotonin-induced contractions of the isolated rat uterus; conditions: serotonin-induced contractions (serotonin 2.47×10^-8 M where printed)
[13] = prolongation of pentobarbital-induced anesthesia in mice; conditions: mouse, in vivo, ip
[14] = spontaneous motor activity in mice; assay type: in vivo; conditions: mouse, in vivo, ip; mice; read-out: ID50, inhibition of spontaneous motor activity
mice = assay: spontaneous motor activity in mice; assay type: in vivo; conditions: two models (motor activity and pentobarbital anesthesia); vs haloperidol; in words
[15] = system: urethane-anestetized normotensive rats; assay: adrenaline-induced vasopressoric response in urethane-anesthetized normotensive rats; assay type: in vivo, rat; conditions: 450 μg/kg i.v.; adrenaline 10 μg/kg i.v.
Protocol: In urethane-anestetized normotensive rats the compound (450 μg/kg, i.v.) intensified the adrenaline (10 μg/kg, i.v.)-induced vasopressoric response.

catalepsy in rats = assay type: in vivo, rat; conditions: rat, in vivo, sc; rats
Protocol: (§3) The s.c. application of the compounds of Example 5 (0.5 to 16 mg/kg) and of Example 8 (0.125 to 4 mg/kg), respectively, caused catalepsy in rats (the method was described by Morelli and Chiara, Europ. J. Pharmacol. 117, 179-185, 1985).

rats = assay: catalepsy in rats; assay type: in vivo, rat; conditions: in words
Protocol: as §3

sigma receptor [16] = assay: binding at [^3 H] DTG binding site; conditions: in words
α1 receptor = assay: binding, [^3 H]Prazosin
Source text: as §2

M1 muscarinic receptor [17] = assay: binding at [^3 H] pirenzepine binding site; conditions: in words
α1 receptors = assay: noradrenaline-induced lethality in rats; assay type: in vivo, rat; conditions: s.c.
pupil = assay: dilatation of the pupil in mice (Pulewka); assay type: in vivo; conditions: 5 mg/kg i.p.; in words
D2 receptors [18] = biological target: T4, D2 receptors (Mus musculus, UniProt P61168); assay: apomorphine-induced climbing in mice; assay type: in vivo; conditions: ip, -30 min., apomorphine 1.5 mg/kg s.c., read-out: ID50, climbing behavior
T4 construct: from tissue; host or cells: living mice (central nervous system)
T4 sequence (P61168 whole entry): as the sequence (P61169 whole entry) above, with A29P counted along it
Protocol: The application of apomorphine in a dose of 1.5 mg/kg s.c. caused a characteristic climbing behavior in mice.

5-HT2 receptor = 5-HT2 receptor (Homo sapiens, UniProt P28223); assay: biochemical; assay type: binding
Sequence of 5-HT2 receptor (P28223 whole entry): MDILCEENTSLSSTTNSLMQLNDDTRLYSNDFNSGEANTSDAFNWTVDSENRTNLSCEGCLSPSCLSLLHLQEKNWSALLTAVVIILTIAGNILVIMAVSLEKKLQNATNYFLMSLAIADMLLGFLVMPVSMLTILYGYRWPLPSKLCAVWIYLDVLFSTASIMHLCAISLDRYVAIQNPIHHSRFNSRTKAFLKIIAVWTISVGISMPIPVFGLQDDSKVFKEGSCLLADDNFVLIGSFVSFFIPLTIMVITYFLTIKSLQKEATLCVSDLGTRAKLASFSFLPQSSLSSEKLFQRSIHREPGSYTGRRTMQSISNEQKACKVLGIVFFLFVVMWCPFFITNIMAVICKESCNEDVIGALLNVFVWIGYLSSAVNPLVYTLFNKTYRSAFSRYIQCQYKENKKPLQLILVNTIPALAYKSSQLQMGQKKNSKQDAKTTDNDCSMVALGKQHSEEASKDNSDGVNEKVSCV
Source text: as §1

[19] = system: isolated rabbit vena cava (noradrenaline); assay: inhibition of noradrenaline venous constriction on the isolated rabbit vena cava; conditions: vs noradrenaline

Compound: C#CCN(C)C[C@@H]1C=C2c3cccc4[nH]cc(c34)C[C@H]2N(C)C1 [Example 8]
- functional activity at M1 muscarinic receptor (M1 muscarinic receptor [1]): indicated an antagonistic activity
- ED50 [2]: 0.37 mg/kg
- effect on carotid artery pressure ([3]; in words): strong and sustained decrease in carotid artery pressure
- maximum reduction in carotid artery pressure ([3]; vs initial level): 20%
- reduction in heart rate ([3]; vs initial level): less than 20%
- mode of inhibition of noradrenaline constriction ([4]; in words): competitively inhibited
- pA2 ([4]; vs noradrenaline): 6.39
- functional activity at sigma receptor (sigma receptor [5]): indicated an antagonistic activity
- mean increase in diastolic pressure (pithed rats): 20%
- inhibition of oxotremorine-induced tremor (acetylcholine receptors): dose-dependent inhibition
- functional activity at 5-HT1A [6]: did not indicate any activity
- Kb [7]: 0.741 nM
- mode of inhibition of serotonin constriction ([7]; in words): competitively inhibited
- venous constriction [8]: minimal venous constriction
- Ki (D2 receptor; D2, [^3 H]Raclopride): 3.8 nM
- affinity for D2 receptors (D2 receptor; in words): high affinity
- Ki (D1 receptor; D1, [^3 H]SCH23390): 87 nM
- affinity for D1 receptors (D1 receptor; in words): lower
- ED50 (D2 receptors [9]): 0.089 mg/kg
- antipsychotic action [10]: strongest antipsychotic action
- side effect liability [10]: lesser degree of probability of the development of extrapyramidal, central depressant and hypotensive side effects
- uterotonic activity (isolated rat uterus): no uterotonic activity
- affinity to 5-HT1A receptor [11]: possessed affinity
- IC50 [12]: 1.85 nM
- ED50 [13]: 17.1 mg/kg
- ED50 [14]: 8.4 mg/kg
- depressant action on the level of CNS (mice): several times lower depressant action on the level of CNS if compared with haloperidol
- effect on adrenaline-induced vasopressoric response [15]: intensified
- ED50 (catalepsy in rats): 0.29 mg/kg
- cataleptic action compared with haloperidole (rats): lesser than the action caused by the typical antipsychotic haloperidole
- affinity to sigma receptor (sigma receptor [16]): possessed affinity
- affinity for α1 receptors (α1 receptor; in words): lower
- Ki (α1 receptor; α1, [^3 H]Prazosin): 245 nM
- affinity to M1 muscarinic receptor (M1 muscarinic receptor [17]): possessed affinity
- ID50, noradrenaline-induced lethality (α1 receptors): 3.75 mg/kg
- dilatation of the pupil (pupil): strong dilatation of the pupil
- ED50 (D2 receptors [18]): 0.44 mg/kg
- Ki (5-HT2 receptor): 10 nM
- affinity for 5-HT2 receptors (5-HT2 receptor; in words): high affinity
- pA2 [19]: 6.63
